Laboratory results taken from the SangsterLogP compilation.

Test: method code SF-AS, from DOI: 10.1016/s0045-6535(98)00132-5, PMID: 9753760

| Structure (SMILES) | logP |
| --- | --- |
| O=C(Nc1ccc(Cl)cc1)c1cccc([N+](=O)[O-])c1O | 2.16 |
| Cc1ccc(Cl)cc1NC(=O)c1cccc([N+](=O)[O-])c1O | 2.24 |
| Cc1ccccc1NC(=O)c1cccc([N+](=O)[O-])c1O | 1.9 |
| O=C(Nc1ccc(Cl)cc1)c1cc([N+](=O)[O-])ccc1O | 2.54 |
| Cc1c(Cl)cccc1NC(=O)c1cccc([N+](=O)[O-])c1O | 2.32 |
| COc1ccc(NC(=O)c2cccc([N+](=O)[O-])c2O)cc1 | 1.83 |
| Cc1ccc(NC(=O)c2cc([N+](=O)[O-])ccc2O)cc1 | 2.22 |
| Cc1ccc(Cl)cc1NC(=O)c1cc([N+](=O)[O-])ccc1O | 2.61 |
| CCOc1ccccc1NC(=O)c1cccc([N+](=O)[O-])c1O | 2.04 |
| CCOc1ccccc1NC(=O)c1cc([N+](=O)[O-])ccc1O | 2.34 |
| Cc1ccc(NC(=O)c2cccc([N+](=O)[O-])c2O)cc1 | 1.94 |
| COc1ccc(NC(=O)c2cc([N+](=O)[O-])ccc2O)cc1 | 2.19 |
| CCOc1ccc(NC(=O)c2cccc([N+](=O)[O-])c2O)cc1 | 1.98 |
| Cc1c(Cl)cccc1NC(=O)c1cc([N+](=O)[O-])ccc1O | 2.64 |
